Source: US20200399238A1, “THERAPEUTIC AURONES” (MIDDLE TENNESSEE STATE UNIVERSITY, priority 2016, published 2020)
Where two headings read alike, the source gives them in different places.

Assays:
p65 (NF-κB) = experiment: Indirect immunofluorescence for NF-κB nuclear translocation, THP-1; assay type: cell-based, human; conditions: pre-treatment with 50 aurone 1; THP-1, LPS 30 min
Excerpt: Bay 11-7082 is a compound that inhibits LPS-induced activation of IKKα/β, thereby suppressing downstream IκBα phosphorylation/degradation and p65 nuclear translocation and was used as a positive control (Catalan, Fernandez-Castillejo et al. 2012). Treated cells were fixed, permeabilized, blocked, and stained with p65 (NF-κB) primary antibody, Dylight 488 conjugated secondary antibody, and Hoechst 33342 dye, sequentially. The Hoechst and DyLight fluorophores detect changes in nuclear morphology (blue fluorescence) and NF-κB distribution (green fluorescence), respectively. Nuclear Translocation Bioapplication software on the Arrayscan VTI reader was used for image acquisition and data analysis (Thermo Fisher Scientific, Waltham, Mass., USA). For each well, at least 400 cells were automatically acquired and analyzed. The translocation index was calculated by measuring the average intensity difference of NF-κB between the identified cytoplasmic region and nuclear region.

NF-κB-dependent promoter = experiment: pNF-κB-Luc luciferase assay, RAW 264.7; assay type: cell-based, murine; conditions: 50 μM, 1 h pre-treatment, LPS 6 h, RAW264.7
Description: Cells were lysed in 250 μl/well of luminometry lysis buffer [25 mM Tris-phosphate, 1%(w/v) BSA, 0.025%(w/v) dithiothreitol (DTT), 1% Triton X-100, 15%(v/v) glycerol, 0.1 mM EDTA, 8 mM MgCl2, 1× protease inhibitor cocktail, and 1 mM phenylmethylsulfonyl fluoride] and incubated on a shaking table at 200 rpm for 15 min. A volume of 10 μl of 25 mM ATP was added to each well, and the samples were transferred in duplicates of 100 μl to an opaque-white 96-well plate. A volume of 20 μl of 10 mM sodium pyrophosphate was added to each well prior to the addition of 100 μl of 2 mM D-luciferin. Luminescence was quantified using a SpectraMax M5 plate reader using SoftMax Pro 6.3 software (Molecular Devices, Sunnyvale, Calif., USA).

ERK, JNK, p38 [1] = experiment: Western blot, MAPK phosphorylation, THP-1; conditions: LPS 15 min
Description: (§1) U0126 is a compound that inhibits MEK1/2 and was used as positive control for ERK phosphorylation inhibition (Hotokezaka, Sakai et al. 2002). Cells were lysed with radio-immunoprecipitation assay (RIPA) lysis buffer that contained a protease and phosphatase inhibitor cocktail. Cell lysates were then tested for protein concentration using a BCA protein assay and diluted with RIPA lysis buffer to normalize protein concentration in all samples. Lysates were mixed with sample loading buffer containing bromophenol blue, glycerol, SDS, and 2-mercaptoethanol. The separated proteins were then transferred onto a nitrocellulose membrane and blocked with 5% BSA in IX Tris-buffered saline with 0.1% Tween-20 for 1 h. The blots were incubated with primary antibodies at 4° C. overnight followed by incubation with HRP-conjugated secondary antibodies for 2 h at 22° C. The membranes were developed by addition of ECL substrate and images were collected with a ChemiDoc XRS+ system chemiluminescence imager (Bio-Rad, Hercules, Calif., USA). Western blot band intensity was quantified using Image Lab software (Bio-Rad, Hercules, Calif., USA). […]

ERK, JNK, p38 [2] = experiment: Western blot, MAPK phosphorylation, RAW 264.7; conditions: RAW264.7; LPS 15 min
Description: as §1

S. cerevisiae = experiment: Antifungal microdilution broth assay, S. cerevisiae; assay type: cell-based; conditions: Saccharomyces cerevisiae; Table 5
Excerpt: A microdilution broth method (CLSI, Reference Method for Broth Dilution Antifungal Susceptibility Testing of Yeasts, Approved Standard-Third Edition, Clinical Laboratory Standards Institute, Wayne, Pa., 2008) was followed with some modifications for the testing of potential antifungal compounds Corning CellGro RPMI 1640 with glutamine, without bicarbonate buffer, with phenol red (RPMI; Sigma-Aldrich) was used as the base medium for testing. A 1 M solution of morpholinepropanesulfonic acid (MOPS; Sigma-Aldrich) was added to the RPMI to a final concentration of 0.165 M for buffering (RPMI-MOPS). This medium was adjusted to a pH of 7.0 with 10 M NaOH and filter sterilized.
PrestoBlue® (Life Technologies, Invitrogen, Carlsbad, Calif.), a resazurin-based cell viability reagent that, in metabolically active cells, is reduced from blue, non-fluorescent resazurin, to red, fluorescent resorufin, was used to assess inhibition of yeast growth by the aurones. Reduction of the compound from resazurin to resorufin is proportional to the number of metabolically active cells and can be quantified by measuring relative fluorescence units (RFUs). […]
IC50 determination was calculated using GraphPad Prism version 7.01 for Windows (GraphPad Software, Inc., La Jolla, Calif.) from the RFUs at dilution points. […]

[3] = system: Trypanosoma cruzi Tulahuen cells expressing beta-galactosidase; experiment: T. cruzi intracellular assay (beta-galactosidase, L6 host cells); conditions: Trypanosoma cruzi, TULAHUEN, intracellular assay

SMILES | cytoplasmic-to-nuclear translocation of p65 (p65 (NF-κB)) | LPS-induced luciferase expression (pNF-κB-Luc) (NF-κB-dependent promoter) | phosphorylation of ERK, JNK, or p38 (ERK, JNK, p38 [1]) | phosphorylation of ERK, JNK, or p38 (ERK, JNK, p38 [2]) | IC50 (S. cerevisiae) | IC50 ([3]; read-out: IC50 T. cruzi, Table 1, mean of 2(+) trials (^c one trial)) | IC50 ([3]; read-out: IC50 T. cruzi, Table 2, mean of 2(+) independent trials)
O=C1/C(=C/c2ccc(CO)o2)Oc2ccccc21 [aurone 1] | capable of blocking cytoplasmic-to-nuclear translocation of p65 | significantly inhibit LPS-induced luciferase expression | no statistically significant effect | no statistically significant effect |  |  | 
COc1ccc(/C=C2\Oc3c(ccc(O)c3O)C2=O)cc1O [Aurone 1009, (Z)-6,7-dihydroxy-2-(3-hydroxy-4-methoxybenzylidene)benzofuran-3(2H)-one] |  |  |  |  | 26 µM | > 50 µM | > 50 µM
